Measurements taken from US9883691B2, “Food and beverage products containing 1,3-propanediol and methods of modifying flavor release using 1,3-propanediol” (Kraft Foods Group Brands LLC, priority 2012, dated 2018).
Entries after “also recorded” stand apart in the source; their conditions may differ.

Legend:
Assay type in all cases: physicochemical
[1] = PTR-MS headspace release with various non-aqueous liquids (diols) at 0.05:100 (Example 3); conditions: ratio 0.05:100; for PTR-MS headspace release in 1,3-butanediol: non-aqueous liquid 1,3-butanediol; for PTR-MS headspace release in 1,3-butanediol / PTR-MS headspace release in 1,3-propanediol / PTR-MS headspace release in 1,4-butanediol / PTR-MS headspace release in 1,7-heptanediol / PTR-MS headspace release in Propylene glycol: diluted in water; for PTR-MS headspace release in 1,3-propanediol: non-aqueous liquid 1,3-propanediol; for PTR-MS headspace release in 1,4-butanediol: non-aqueous liquid 1,4-butanediol; for PTR-MS headspace release in 1,7-heptanediol: non-aqueous liquid 1,7-heptanediol; for PTR-MS headspace release in Propylene glycol: non-aqueous liquid propylene glycol
Experimental: […]. The flavoring was then diluted in water for analysis. The final concentration of each compound was held constant at 8 ppm except furfuryl mercaptan was included at 1.6 ppm to maintain a constant flavor level in the resulting beverage while the non-aqueous liquid varied but the ratio of each compound to non-aqueous liquid was held constant at 0.05:100. A variety of non-aqueous liquids were evaluated, including 1,4-butandiol; 1,7-heptandiol; 1,3-butandiol, propylene glycol, and 1,3-propanediol.
Samples were analyzed by PTR-MS as described in Example 1.
Percent suppression was calculated by the following formula: (I1-3-diol−Ialternate diol)/Ialternate diol×100.

[2] = PTR-MS headspace release from stored beverages, water/solvent experiment (Example 4); conditions: beverage stored refrigerated; 1.5, 24, 48 and 72 hours; Tukey-Kramer
Experimental: 0.86 grams of the flavor concentrate was then added to 100 grams of either propylene glycol or 1,3-propanediol to provide diluted concentrates. […].
The beverages were then stored in sealed containers in a refrigerator. The container was opened five times over the course of the experiment and therefore represented a beverage in a sealed container being opened for multiple uses. 15 gram samples were weighed into a 4 ounce cup and analyzed at 1.5 hours, 24 hours, 48 hours, and 72 hours after storage.
The samples were analyzed in triplicate by PTR-MS as described below to determine impact of 1,3-propanediol or propylene glycol on release of the flavors from the beverage. The PTR-MS was performed as follows. A sampling apparatus was needed in conjunction with the PTR-MS inlet to prevent variations caused by headspace kinetics. The sampling apparatus used includes a 4 ounce sample vessel equipped with a 2-hole lid which may be sealed by an adhesive film to allow equilibration. […]. The holes were equal sized (˜2 mm diameter) and match the outer diameter of the PTR-MS inlet line. The flow of the dilution gas into the vessel was regulated by the vacuum and proportional valve of the PTR-MS inlet system. […] The 2 holes in the lid were equidistant from the edge of the vessel (˜20 mm) and ˜30 mm from each other. The PTR-MS inlet was braced by clamps in a fixed position vertically above the laboratory bench (˜55 mm) and a silicone rubber depth gauge was affixed to the PTR-MS inlet tubing and set at 18 mm. The PTR-MS inlet was consistently oriented in a vertical position […] below the inside lid of the vessel and 19 mm above the sample in the vessel. The sample vessel was then held in place during sampling according to the depth gauge on the inlet line and the vessel was subsequently supported on the bench by a 10 mm plastic spacer.
15 grams of the sample to be tested (e.g., food or beverage product containing 1,3-propanediol) are added to the vessel and the vessel is sealed and allowed to equilibrate at room temperature (˜22° C.) for 90 minutes. At the time of sampling, the seal was removed from both the sampling hole and the dilution gas hole in the lid and the vessel was immediately affixed to the PTR-MS inlet via the sampling hole. The real-time released flavor was measured from the headspace of the sample vessel for two minutes (according to the conditions listed in Table 1 above).
The data was analyzed using PTR-MS Viewer, Version 3.0.0.101 (Ionicon Analytik G.m.b.H). The point of maximum intensity for each compound of interest was determined and recorded according to the PTR-MS Viewer software. The maximum intensity in counts over the timescale for each compound of interest was used for data analysis as it reflected the static equilibrium headspace concentration in the system at the moment of seal removal. Due to the necessity of a dilution gas, the volatile concentration decreased over time as the compounds of interest re-equilibrated to a state of dynamic equilibrium in the headspace.
The statistical differences were determined by Tukey-Kramer Honest […]. […].

[3] = PTR-MS headspace release at various flavor compound to 1,3-propanediol or PG ratios (Example 2); conditions: for Percent Suppression by 1,3-propanediol: (IZ−IPG)/IPG×100; for release suppressed in the presence of 1,3-propanediol: 10% cut-off for significant difference, relative to PG
Experimental: The compounds listed below in Table 3 were added together to provide a liquid flavoring to analyze the role, if any, of the amount of 1,3-propanediol on flavor release. […] The amount of each flavor compound in the beverage was held constant at 8 ppm except furfuryl mercaptan was included at 1.6 ppm while the amount of propylene glycol or 1,3-propanediol varied.
The percent suppression was calculated using the following formula: (IZ−IPG)/IPG×100, where I is peak height, “Z” is 1,3-propanediol and “PG” is propylene glycol.

[4] = PTR-MS headspace release in neat solvent, solvent/solvent experiment (Example 5); design: key to Release Differences: “Z” indicates that 1,3-propanediol had higher equilibrium maximum (meaning more of the flavor was released in 1,3-propanediol); “P” indicates that propylene glycol had higher equilibrium maximum; “-” indicates no statistical difference (95% significance) between the two samples; conditions: 1.5 hrs equilibration; for Release Differences: 1,3-propanediol versus propylene glycol as sole solvent, 95% significance
Experimental: […]. Then the head space was analyzed as described above.
0.86 grams of the concentrate was added to 100 grams of either propylene glycol or 1,3-propanediol to provide a 1,3-propanediol diluted concentrate or propylene glycol diluted concentrate. The diluted concentrates were then further diluted as outlined in Table 10 below.
A 15 gram sample was weighed into a 4 oz vessel and analyzed at 1.5 hrs. of equilibration time as described in the method of Example 4.

[5] = ratio 0.005:100, negative = suppressed vs PG
[6] = flavor/1,3-propanediol ratio of 0.05:100

SMILES	PTR-MS headspace release in 1,3-butanediol [1]	PTR-MS headspace release in 1,3-propanediol [1]	PTR-MS headspace release in 1,4-butanediol [1]	PTR-MS headspace release in 1,7-heptanediol [1]	PTR-MS headspace release in Propylene glycol [1]	Percent suppression by 1,3-butanediol relative to 1,4-butanediol [1]	effect of 1,3-propanediol on flavor release relative to propylene glycol, water/solvent [2]	Percent Suppression by 1,3-propanediol [3, 5]	Percent Suppression by 1,3-propanediol ([3]; ratio 0.05:100)	Percent Suppression by 1,3-propanediol ([3]; ratio 5:100)	Percent Suppression by 1,3-propanediol ([3]; ratio 15:100)	Release Differences [4]	release suppressed in the presence of 1,3-propanediol [3]	effect of 1,3-propanediol on release [3, 6]	effect of 1,3-propanediol on release ([3]; flavor to 1,3-propanediol ratio of about 0.005:100 to 15:100)	effect of 1,3-propanediol on release ([3]; ratio 0.005:100)	release in 1,3-propanediol versus propylene glycol, solvent/solvent [4]
CCCCCCCC=O [Octanal]	42.9	10.70	56.0	67.0	11.95	−30.5%	significantly suppressed release	2.6%	−10.5%	−21.1%	−2.5%	–	–	–	–	–	–
CC(=O)O [Acetic acid]	16.9	9.90	15.6	13.4	13.70	8.0%	little effect	−0.5%	−27.7%	−1.7%	−9.0%	P	suppressed	significant suppression effect	–	–	–
COc1ccccc1O [Guaiacol]	28.4	18.95	39.9	36.2	36.50	−40.3%	significantly suppressed release	−3.4%	−48.1%	−19.9%	0.2%	–	suppressed	significant suppression effect	–	–	–
CCCCCCCCCC(=O)OCC [Ethyl decanoate]	117.0	23.9	258.0	131.3	16.84	−120.5%	little effect	−2.0%	41.9%	17.8%	−12.4%	–	–	–	–	–	–
SCc1ccco1 [Furfuryl mercaptan]	1.3	0.55	0.3	2.1	0.51	73.9%	significantly increase the rate of release	31.8%	7.8%	15.9%	−13.1%	–	–	–	–	–	–
CC(C)=CCCC(C)=CC=O [Citral, 3,7-dimethyl-2,6-octadienal]	6.0	5.83	13.5	24.3	18.80	−124.2%	significantly suppressed release	−70.0%	−69.0%	−45.4%	−58.2%	–	suppressed	–	significant suppression effect	still suppressed	–
C=C(C)[C@H]1CC=C(C)CC1 [Limonene]	13.5	4.9	59.7	59.5	6.55	−343.5%	little effect; also recorded: no significant difference	−0.1%	−25.2%	−34.8%	23.5%	Z	suppressed	–	–	–	released faster in 1,3-propanediol
CCCCOC(=O)CCC [Butyl butyrate]	27.9	13.57	49.4	46.4	10.50	−77.2%	–	−3.3%	29.2%	−20.5%	−8.2%	Z	–	–	–	–	–
